Laboratory results published in patent EP3782997A1, “FUSED PYRIMIDINE COMPOUNDS AND PHARMACEUTICAL COMPOSITIONS THEREOF FOR THE TREATMENT OF FIBROTIC DISEASES” (Galapagos N.V., priority 2019, dated 2021).

Each molecule was assayed against hENPP2 (Homo sapiens, UniProt Q13822) (assay: Human ENPP2 (hENPP2) biochemical assay using LPC as substrate). Conditions: 150 µM LPC (palmitoyl 16:0), 37°C for 30 min.
Procedure: The principle of the assay conswasts in quantifying the released choline with an enzymatic method using choline oxidase and peroxidase. Choline oxydation by choline oxydase releases betaine and peroxide. The latter was quantified in presence of HRP that converts the peroxide detection agent TOOS (CAS# 82692-93-1) and 4-aminoantipyrine into quinoneimine dye. The appearance of quinoneimine dye was measured spectrophotometrically at 555 nm and was proportional to the amount of choline released by ENPP2. Inhibition of ENPP2 results in a decrease of the signal.
Compound IC50 values were determined in a hENPP2 (UniProtKB/SwwassProt Sequence ref Q13822) biochemical assay using LPC as substrate.
5 µL of a dilution series of compound, starting from 50 µM highest concentration, 1/3 dilution, was added to the wells. hENPP2 was used at a final concentration of 1 µg/mL or 3 µg/mL (it will be appreciated by the skilled person that the potency read out was independent of the enzyme concentration). The enzyme was diluted in 50 mM Trwas-HCl pH 8.5, 500 mM NaCl, 5 mM KCl, 10 mM CaCl2, 0.1% fatty acid free BSA in a total volume of 10 µL. The reaction was started by the addition of 10 µL of 150 µM LPC (palmitoyl 16:0; Avanti Polar Lipids, Inc., Cat# 855675) diluted in the same buffer as described above and the mixture was incubated at 37°C for 30 min. The reaction was terminated and choline quantified by the addition of a 25 µL of a mixture containing 0.6 U/mL of choline oxidase, 0.6 U/mL of peroxydase, 1.8 mM TOOS, 1.2 mM amino-antipyrine, 20 mM EGTA (stop-developer solution) diluted in the buffer described above. […] was read on an Envision plate reader (PerkinElmer, Inc.) after an incubation of 30 min at room temperature (excitation 555 nm).
Work on `COC(=O)[C@H]1CN(C(=O)c2ccc3[nH]nnc3c2)CC[C@H]1N1Cc2cnc(Nc3cc(C)cc(C)c3)nc2C1` (racemic) [Cpd 137, methyl (3S,4R/3R,4S)-1-(1H-benzotriazole-5-carbonyl)-4-[2-(3,5-dimethylanilino)-5,7-dihydropyrrolo[3,4-d]pyrimidin-6-yl]piperidine-3-carboxylate] yielded an IC50 of 0.01 to 100 nM.
`Cc1cc(C)cc(Nc2ncc3c(n2)CN(C2CCN(C(=O)c4ccc5[nH]nnc5c4)C(C)C2)C3)c1` (racemic) [compound 34, 1H-benzotriazol-5-yl-[(2S,4S/2R,4R)-4-[2-(3,5-dimethylanilino)-5,7-dihydropyrrolo[3,4-d]pyrimidin-6-yl]-2-methyl-1-piperidyl]methanone] gave an IC50 of 0.01 to 100 nM.
For `Cc1cc(C)cc(Nc2ncc3c(n2)CN([C@H]2CCN(C(=O)c4ccc5[nH]nnc5c4)C[C@@H]2C)C3)c1` (racemic) [compound 99, 1H-benzotriazol-5-yl-[(3S,4S/3R,4R)-4-[2-(3,5-dimethylanilino)-5,7-dihydropyrrolo[3,4-d]pyrimidin-6-yl]-3-methyl-1-piperidyl]methanone], the IC50 was 0.01 to 100 nM.
In the case of `Cc1cc(C)cc(Nc2ncc3c(n2)CN([C@@H]2CN(C(=O)c4ccc5[nH]nnc5c4)C[C@@H]2F)C3)c1` (racemic) [compound 102, 1H-benzotriazol-5-yl-[(3R,4S/3S,4R)-3-[2-(3,5-dimethylanilino)-5,7-dihydropyrrolo[3,4-d]pyrimidin-6-yl] -4-fluoro-pyrrolidin-1-yl]methanone], the IC50 is reported as 500 to 1000 nM.
Work on `Cc1cc(C)cc(Nc2ncc3c(n2)CCN([C@H]2CN(C(=O)c4ccc5[nH]nnc5c4)C[C@H]2F)C3)c1` (racemic) [compound 103, 1H-benzotriazol-5-yl-[(3S,4R/3R,4S)-3-[2-(3,5-dimethylanilino)-7,8-dihydro-5H-pyrido[4,3-d]pyrimidin-6-yl] -4-fluoro-pyrrolidin-1-yl]methanone] yielded an IC50 of 0.01 to 100 nM.
Work on `COc1cc2[nH]nnc2cc1C(=O)N1CC[C@H](N2Cc3cnc(Nc4cc(C)cc(C)c4)nc3C2)[C@H](C)C1` (racemic) [compound 119, [(3R,4S/3S,4R)-4-[2-(3,5-dimethylanilino)-5,7-dihydropyrrolo[3,4-d]pyrimidin-6-yl]-3-methyl-1-piperidyl]-(6-methoxy-1H-benzotriazol-5-yl)methanone] yielded an IC50 of 0.01 to 100 nM.
With `Cc1cc(C)cc(Nc2ncc3c(n2)CN([C@H]2CCN(C(=O)c4cc5nn[nH]c5cc4F)C[C@H]2C)C3)c1` (racemic) [compound 148, [(3R,4S/3S,4R)-4-[2-(3,5-dimethylanilino)-5,7-dihydropyrrolo[3,4-d]pyrimidin-6-yl]-3-methyl-1-piperidyl]-(6-fluoro-1H-benzotriazol-5-yl)methanone] the IC50 was 0.01 to 100 nM.
`Cc1cc(C)cc(Nc2ncc3c(n2)CN([C@H]2CCN(C(=O)c4ccnc(NS(C)(=O)=O)c4)C[C@H]2C)C3)c1` (racemic) [compound 167, N-[4-[(3R,4S/3S,4R)-4-[2-(3,5-dimethylanilino)-5,7-dihydropyrrolo[3,4-d]pyrimidin-6-yl]-3-methyl-piperidine-1-carbonyl]-2-pyridyl]methanesulfonamide] gave an IC50 of 0.01 to 100 nM.
`Cc1cc(C)cc(Nc2ncc3c(n2)CN([C@H]2CCN(C(=O)c4c[nH]nn4)C[C@H]2C)C3)c1` (racemic) [compound 172, [(3R,4S/3S,4R)-4-[2-(3,5-dimethylanilino)-5,7-dihydropyrrolo[3,4-d]pyrimidin-6-yl]-3-methyl-1-piperidyl]-(1H-triazol-4-yl)methanone] was tested, and the IC50 was 0.01 to 100 nM.
With `Cc1cc(C)cc(Nc2ncc3c(n2)CN(C2CCN(C(=O)c4ccc5[nH]nnc5c4)CC2O)C3)c1` (single isomer, unassigned) [Cpd 110, 1H-benzotriazol-5-yl-[4-[2-(3,5-dimethylanilino)-5,7-dihydropyrrolo[3,4-d]pyrimidin-6-yl]-3-hydroxy-1-piperidyl]methanone] the IC50 was 0.01 to 100 nM.
Molecule `Cc1cc(C)cc(Nc2ncc3c(n2)CN(C2CN(C(=O)c4ccc5[nH]nnc5c4)CCC2O)C3)c1` (single isomer, unassigned) [Cpd 111, 1H-benzotriazol-5-yl-[3-[2-(3,5-dimethylanilino)-5,7-dihydropyrrolo[3,4-d]pyrimidin-6-yl]-4-hydroxy-1-piperidyl]methanone] has an IC50 of 500 to 1000 nM.
Molecule `COC(=O)[C@H]1CN(C(=O)c2ccc3[nH]nnc3c2)CC[C@@H]1N1Cc2cnc(Nc3cc(C)cc(C)c3)nc2C1` (single isomer, unassigned) [Cpd 136] has an IC50 of 0.01 to 100 nM.
`CCOc1cc2[nH]nnc2cc1C(=O)N1CC[C@H](N2Cc3cnc(Nc4cc(C)cc(C)c4)nc3C2)C[C@H]1C` (single isomer, unassigned) [Cpd 138] was tested, and the IC50 was 0.01 to 100 nM.
`CCOc1cc2[nH]nnc2cc1C(=O)N1CC[C@@H](N2Cc3cnc(Nc4cc(C)cc(C)c4)nc3C2)C[C@H]1C` (single isomer, unassigned) [Cpd 139] was tested, and the IC50 was 0.01 to 100 nM.
`C[C@@H]1C[C@@H](N2Cc3cnc(Nc4ccc(OC(F)(F)F)cc4)nc3C2)CCN1C(=O)c1ccc2[nH]nnc2c1` (single isomer, unassigned) [Cpd 164] gave an IC50 of 0.01 to 100 nM.
For `C[C@@H]1C[C@H](N2Cc3cnc(Nc4ccc(OC(F)(F)F)cc4)nc3C2)CCN1C(=O)c1ccc2[nH]nnc2c1` (single isomer, unassigned) [Cpd 169], the IC50 was 0.01 to 100 nM.
`Cc1cc(C)cc(Nc2ncc3c(n2)CCN(C2CN(C(=O)c4ccc5[nH]c(=O)oc5c4)C2)C3)c1` [Cpd 1, 6-[3-[2-(3,S-dimethylanilino)-7,8-dihydro-5H-pyrido[4,3-d]pyrimidin-6-yl]azetidine-1-carbonyl]-3H-1,3-benzoxazol-2-one] gave an IC50 of 0.01 to 100 nM.
Molecule `Cc1cc(C)cc(Nc2ncc3c(n2)CN(C2CN(C(=O)c4ccc5[nH]c(=O)oc5c4)C2)C3)c1` [Cpd 3, 6-[3-[2-(3,5-dimethylanilino)-5,7-dihydropyrrolo[3,4-d]pyrimidin-6-yl]azetidine-1-carbonyl]-3H-1,3-benzoxazol-2-one] has an IC50 of 0.01 to 100 nM.
`Cc1cc(C)cc(Nc2ncc3c(n2)CN(C2CN(C(=O)c4cccc(C(=O)O)c4)C2)C3)c1` [Cpd 25, 3-[3-[2-(3,5-dimethylanilino)-5,7-dihydropyrrolo[3,4-d]pyrimidin-6-yl]azetidine-1-carbonyl]benzoic acid] was tested, and the IC50 was greater than 1000 nM.
`Cc1cc(C)nc(Nc2ncc3c(n2)CN(C2CCN(C(=O)c4ccc5[nH]c(=O)oc5c4)CC2)C3)c1` [Cpd 60, 6-[4-[2-[(4,6-dimethyl-2-pyridyl)amino]-5,7-dihydropyrrolo[3,4-d]pyrimidin-6-yl]piperidine-1-carbonyl]-3H-1,3-benzoxazol-2-one] gave an IC50 of 100 to 500 nM.
`Cc1cc(C)cc(Nc2ncc3c(n2)CN(C2CCN(C(=O)c4cnc5[nH]nnc5c4)CC2)C3)c1` [Cpd 66, [4-[2-(3,5-dimethylanilino)-5,7-dihydropyrrolo[3,4-d]pyrimidin-6-yl]-1-piperidyl]-(3H-triazolo[4,5-b]pyridin-6-yl)methanone] gave an IC50 of 500 to 1000 nM.
Work on `Cc1cc(C)cc(Nc2ncc3c(n2)CN(C2CN(C(=O)c4cnc5nn[nH]c5c4)C2)C3)c1` [Cpd 67, [3-[2-(3,5-dimethylanilino)-5,7-dihydropyrrolo[3,4-d]pyrimidin-6-yl]azetidin-1-yl]-(1H-triazolo[4,5-b]pyridin-6-yl)methanone] yielded an IC50 greater than 1000 nM.
Molecule `Cc1cc(C)cc(Nc2ncc3c(n2)CCCN(C2CCN(C(=O)c4cnc5[nH]nnc5c4)CC2)C3)c1` [Cpd 76, [4-[2-(3,5-dimethylanilino)-5,7,8,9-tetrahydropyrimido[5,4-c]azepin-6-yl]-1-piperidyl]-(3H-triazolo[4,5-b]pyridin-6-yl)methanone] has an IC50 greater than 1000 nM.
`Cc1cc(C)cc(Nc2ncc3c(n2)CN(C2CN(C(=O)c4ccc5[nH]nnc5n4)C2)C3)c1` [Cpd 86, [3-[2-(3,5-dimethylanilino)-5,7-dihydropyrrolo[3,4-d]pyrimidin-6-yl]azetidin-1-yl]-(1H-triazolo[4,5-b]pyridin-5-yl)methanone] gave an IC50 of 0.01 to 100 nM.
Work on `Cc1cc(C)cc(Nc2ncc3c(n2)CCN(C2CCN(C(=O)c4ccc5[nH]nnc5c4)[C@@H](C)C2)C3)c1` (stereo partly drawn) [Cpd 96, 1H-benzotriazol-5-yl-[(2S)-4-[2-(3,5-dimethylanilino)-7,8-dihydro-5H-pyrido[4,3-d]pyrimidin-6-yl]-2-methyl-1-piperidyl]methanone] yielded an IC50 of 0.01 to 100 nM.
For `Cc1cc(C)cc(Nc2ncc3c(n2)CCN([C@@H]2CCN(C(=O)c4ccc5[nH]nnc5c4)[C@H](C)C2)C3=O)c1` [Cpd 97, 6-[(2R,4R)-1-(1H-benzotriazole-5-carbonyl)-2-methyl-4-piperidyl]-2-(3,5-dimethylanilino)-7,8-dihydropyrido[4,3-d]pyrimidin-5-one], the IC50 was 100 to 500 nM.
Molecule `Cc1cc(C)cc(Nc2ncc3c(n2)CN(C2CCN(C(=O)c4ccc5[nH]nnc5c4)C(C)(C)C2)C3)c1` (stereo not drawn) [Cpd 100, 1H-benzotriazol-5-yl-[4-[2-(3,5-dimethylanilino)-5,7-dihydropyrrolo[3,4-d]pyrimidin-6-yl]-2,2-dimethyl-1-piperidyl]methanone] has an IC50 of 0.01 to 100 nM.
